Measured values: patent US6747021B2, “Cryptophycin compound” (Eli Lilly and Company, priority 2000, dated 2004)
Like-named read-outs stand apart in the source and are kept apart here.

Experiments:
[1] = tested on: HUMAN COLON ADENOCARCINOMA 15; assay type: in vivo; settings: Balb/C SCID female mice
Excerpt: (§1) Inhibition of tumors transplanted into mice is an accepted procedure for studying the efficacy of antitumor agents (Corbett, et al., In vivo Methods for Screening and Preclinical Testing; Use of rodent solid tumors for drug discovery., In: Anticancer Drug Development Guide: Preclinical Screening, Clinical Trials, and Approval, B. Teicher (ed), Humana Press Inc., Totowa, N.J., Chapter 5, pages 75-99 (1997); (Corbett, et al., Int. J. Pharmacog., 33, Supplement, 102-122 (1995)). Murine tumors or human xenographs were implanted essentially as described by Corbett in In vivo Methods for Screening and Preclinical Testing; Use of rodent solid tumors for drug discovery. Briefly, the murine tumor or human xenograph was implanted subcutaneously using either 12-gauge trocar implants or counted number of cells. The location for the trocar insertion is midway between the axillary and inguinal region along the side of the mouse. The trocar is slipped approximately ¾ of an inch subcutaneously up toward the axilla before discharging the tumor fragment, and pinching the skin as the trocar is removed. Alternatively, human tumor cells prepared from a […] of donor tumors (5×10^6 cells) were implanted subcutaneously in a hind-leg of a male or female nude mouse (Charles River). Either a test compound in vehicle or vehicle alone was administered by intravenous bolus injection (iv), intraperitoneal injection (ip), or oral gavage (po). Each treatment group, as well as a group of untreated control animals, consisted of five animals per group in each experiment. Subcutaneous tumor response was monitored by tumor volume measurement performed twice each week over the course of the experiment (60-120 days). Body weights were taken as a general measure of toxicity. The subcutaneous tumor data were analyzed by determining the median tumor weight for each treatment group over the course of the experiment and calculating the tumor growth delay as the difference in days for the treatment versus the control tumors to reach a volume of either 500 or 1000 mm^3.
(§2) Cryptophycin-309 (309) was tested against a variety of murine and human tumors substantially as described supra. Cryptophycin-55 glycinate (55-GLY), Taxol, and Adriamycin (Adria) were also included in certain tests for purposes of comparison. Cryptophycin 55 glycinate is known in the art (WO 98/08505, Example 9) and has the following structure: [drawing 9]
(§3) Tumor Weight(mg)=(a×b^2)/2 where a=tumor length (mm) and b=tumor width (mm).
(§4) Tumor Growth Delay=T−C where T is the median time (days) required for the treatment group tumors to reach a predetermined size, and C is the median time (days) for the control group tumors to reach the same size. Tumor-free survivors are excluded from this calculation, and are tabulated separately (Tumor Free).
(§5) Log Kill=Tumor Growth Delay/(3.32)(Td)
(§6) where Tumor Growth Delay is as previously defined and Td is tumor volume doubling time (days), estimated from the best fit straight line from a log-linear growth plot of the control group of tumors in exponential growth (100-800 mg range)
(§7) %T/C mass—The treatment and control groups are measured when the control group tumors reach approximately 700 to 1200 mg in size (median group). The median tumor weight of each group is determined (including zeros). The T/C value in percent is an indication of antitumor effectiveness. A T/C≦42% is considered significant antitumor activity. A T/C<10% is considered to indicate highly significant antitumor activity.
(§8) Body Weight Loss Nadir—A body weight loss nadir (mean of group) of greater than 20% or drug deaths greater than 20% are considered to indicate an excessively toxic dosage in single course trials.
(§9) Activity Rating—the Activity Rating is derived from the Log Kill according to the following table: […]

[2] = tested on: MAMMARY ADENOCARCINOMA-16/C/Adr; assay: Early stage murine mammary adenocarcinoma-16/C/Adr subcutaneous tumor assay; assay type: in vivo; settings: C3H female mice
Excerpt: as §1, §2, §3, §4, §5, §6, §7, §8, §9

[3] = tested on: MAMMARY ADENOCARCINOMA 16/C; assay type: in vivo, murine; settings: C3H/HeN female mice
Excerpt: as §1, §2, §3, §4, §5, §6, §7, §8, §9

[4] = tested on: PANCREATIC DUCTAL ADENOCARCINOMA #02; assay type: in vivo, murine; settings: BDF1 female mice, experiment ##
Excerpt: as §1, §2, §3, §4, §5, §6, §7, §8, §9

[5] = tested on: MAMMARY ADENOCARCINOMA-17/ADR/Resist.; assay type: in vivo, murine; settings: C3H female mice
Excerpt: as §1, §2, §3, §4, §5, §6, §7, §8, §9

[6] = tested on: HUMAN COLON ADEN[…]-116; assay: Early stage human colon adenocarcinoma HCT-116 xenograft assay; assay type: in vivo; settings: Balb/C SCID female mice
Excerpt: as §1, §2, §3, §4, §5, §6, §7, §8, §9

[7] = IV 28 mg/kg/inj days 3,5,7,9,11, total dose 140 mg/kg
[8] = IV 32 mg/kg/inj twice/day days 3,5,7,9,11, total dose 320 mg/kg
[9] = IV 42 mg/kg/inj days 3,5,7,9,11, total dose 210 mg/kg
[10] = IV 28 mg/kg/inj days 1,3,5,7,9, total dose 140 mg/kg
[11] = IV 42 mg/kg/inj days 1,3,7,9, total dose 168 mg/kg
[12] = IV 42 mg/kg/inj days 1,3,5,7,9, total dose 210 mg/kg

Q: Which results are given for `COc1ccc(C[C@H]2NC(=O)/C=C/C[C@@H]([C@H](C)[C@@H](OC(=O)CN)[C@@H](Cl)c3ccccc3)OC(=O)[C@H](CC(C)C)OC(=O)C(C)(C)CNC2=O)cc1Cl` [Cryptophycin 55-GLY, Cryptophycin-55 glycinate]?
A: % T/C MASS [1, 7]: 15%; ACTIVITY RATING [1, 7]: +++ (2.0-2.8); DRUG DEATHS [1, 7]: 0/5; GROWTH DELAY [1, 7]: 21.5 days; LOG KILL [1, 7]: 2.2; MEDIAN TUMOR WEIGHT [1, 7]: 171 mg; % T/C MASS [1, 8]: 0%; ACTIVITY RATING [1, 8]: ++++ (>2.8); DRUG DEATHS [1, 8]: 0/5; GROWTH DELAY [1, 8]: 56 days; LOG KILL [1, 8]: 4.0; MEDIAN TUMOR WEIGHT [1, 8]: 0 mg; % T/C MASS [1, 9]: 5.5%; ACTIVITY RATING [1, 9]: +++ (2.0-2.8); DRUG DEATHS [1, 9]: 0/5; GROWTH DELAY [1, 9]: 21.5 days; LOG KILL [1, 9]: 2.2; MEDIAN TUMOR WEIGHT [1, 9]: 63 mg; % T/C MASS [2, 10]: 24%; ACTIVITY RATING [2, 10]: ++ (1.3-1.9); DRUG DEATHS [2, 10]: 0/5; GROWTH DELAY [2, 10]: 6.2 days; LOG KILL [2, 10]: 1.7; MEDIAN TUMOR WEIGHT [2, 10]: 48 mg; % T/C MASS [2, 11]: 0%; ACTIVITY RATING [2, 11]: +++ (2.0-2.8); DRUG DEATHS [2, 11]: 0/5; GROWTH DELAY [2, 11]: 7.8 days; LOG KILL [2, 11]: 2.1; MEDIAN TUMOR WEIGHT [2, 11]: 0 mg; % T/C MASS [3, 7]: 0%; ACTIVITY RATING [3, 7]: ++++ (>2.8); DRUG DEATHS [3, 7]: 0/5; GROWTH DELAY [3, 7]: 15 days; LOG KILL [3, 7]: 3.5; MEDIAN TUMOR WEIGHT [3, 7]: 0 mg; % T/C MASS [3, 9]: 0%; ACTIVITY RATING [3, 9]: ++++ (>2.8); DRUG DEATHS [3, 9]: 0/5; GROWTH DELAY [3, 9]: 17.5 days; LOG KILL [3, 9]: 4.1; MEDIAN TUMOR WEIGHT [3, 9]: 0 mg; % T/C MASS [4, 10]: 9%; ACTIVITY RATING [4, 10]: ++ (1.3-1.9); DRUG DEATHS [4, 10]: 0/5; GROWTH DELAY [4, 10]: 13 days; LOG KILL [4, 10]: 1.8; MEDIAN TUMOR WEIGHT [4, 10]: 95 mg; % T/C MASS [4, 12]: 0%; ACTIVITY RATING [4, 12]: +++ (2.0-2.8); DRUG DEATHS [4, 12]: 0/5; GROWTH DELAY [4, 12]: 16 days; LOG KILL [4, 12]: 2.2; MEDIAN TUMOR WEIGHT [4, 12]: 0 mg; % T/C MASS [5, 10]: 24%; ACTIVITY RATING [5, 10]: ++ (1.3-1.9); DRUG DEATHS [5, 10]: 0/5; GROWTH DELAY [5, 10]: 5.25 days; LOG KILL [5, 10]: 1.6; MEDIAN TUMOR WEIGHT [5, 10]: 577 mg; % T/C MASS [5, 12]: 0%; ACTIVITY RATING [5, 12]: +++ (2.0-2.8); DRUG DEATHS [5, 12]: 0/5; GROWTH DELAY [5, 12]: 7.6 days; LOG KILL [5, 12]: 2.3; MEDIAN TUMOR WEIGHT [5, 12]: 0 mg; % T/C MASS [6, 7]: 5.5%; ACTIVITY RATING [6, 7]: +++ (2.0-2.8); DRUG DEATHS [6, 7]: 0/5; GROWTH DELAY [6, 7]: 22 days; LOG KILL [6, 7]: 2.65; MEDIAN TUMOR WEIGHT [6, 7]: 63 mg; % T/C MASS [6, 8]: 0%; ACTIVITY RATING [6, 8]: ++++ (>2.8); DRUG DEATHS [6, 8]: 0/4; GROWTH DELAY [6, 8]: 35 days; LOG KILL [6, 8]: 4.2; MEDIAN TUMOR WEIGHT [6, 8]: 0 mg; % T/C MASS [6, 9]: 0%; ACTIVITY RATING [6, 9]: ++++ (>2.8); DRUG DEATHS [6, 9]: 0/5; GROWTH DELAY [6, 9]: 25 days; LOG KILL [6, 9]: 3.0; MEDIAN TUMOR WEIGHT [6, 9]: 0 mg
